The source of these data is ChEMBL document CHEMBL1201862, “PubChem BioAssay data set” (2004).

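Where inhibition never reached the appropriate level, the endpoint shown equals the highest concentration tested. Otherwise, values were interpolated linearly from a five-concentration, 48-hour dose response in 96-well plates. At the GI50, growth is halved.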 Calls of active or inactive are those of the source. Rule as the data show it: active = GI50 up to about 1.1 µM and inactive = higher. A value given as a limit tells only on which side of the number the result lay.

Test systems include NCI-H23; IGROV-1; A498; LOX IMVI; SK-MEL-28; SF-295; PC-3; HT-29; NCI/ADR-RES; RPMI-8226; SN12C; SF-268; HCT-116; 786-0; UACC-62; OVCAR-3; Hs-578T; NCI-H522.
What all share (assay): NCI-60 cell line screen, 48 h

As to `c1ccc2c[n+](CCCC[n+]3ccc4ccccc4c3)ccc2c1`, the GI50 in the test on NCI-H23, in the test on IGROV-1, in the test on A498, in the test on LOX IMVI, in the test with SK-MEL-28 and with SF-295 was > 100 µM (inactive) each time. Moreover, the GI50 in the test on PC-3, in the test with HT-29, in the test with NCI/ADR-RES, with RPMI-8226, with SN12C and with SF-268 was > 100 µM (inactive) each time. Moreover, the GI50 in the test with HCT-116, with 786-0, with UACC-62 and in the test on OVCAR-3 was > 100 µM (inactive) in each case.

For the compound `CCN1C/C(=C\c2ccc(Cl)cc2)c2[nH]c(=O)c(C#N)c(-c3ccc(Cl)cc3)c2C1`, the GI50 with NCI-H23, in the test with IGROV-1, with A498, in the test on LOX IMVI, in the test with SK-MEL-28 and in the test on PC-3 was > 100 µM (inactive) throughout. Further, the GI50 with HT-29, in the test on NCI/ADR-RES, in the test with RPMI-8226, with SN12C, in the test on SF-268 and with HCT-116 was > 100 µM (inactive) in each case. The GI50 with 786-0, in the test on UACC-62 and in the test on OVCAR-3 was > 100 µM (inactive) in each case.

For the compound `O=C1CC(C(=O)N2CCCCC2)n2c(=O)n(-c3ccccc3)c(=O)n2C1` (stereo unspecified), the GI50 in the test on NCI-H23, in the test on IGROV-1, in the test on LOX IMVI, with SF-295, with PC-3 and in the test with HT-29 was > 100 µM (inactive) throughout. For the same compound, the GI50 in the test with Hs-578T, in the test with NCI/ADR-RES, in the test on SF-268, in the test on HCT-116, with 786-0 and in the test on NCI-H522 was > 100 µM (inactive) throughout. Moreover, the GI50 in the test on UACC-62 and with OVCAR-3 was > 100 µM (inactive) in each case.

On to `O=c1ccn(C2OC(CO)C(P(=O)(O)O)C2O)c(=O)[nH]1` (stereo unspecified), for which the GI50 in the test on NCI-H23, with IGROV-1, in the test on A498, in the test with LOX IMVI, with SK-MEL-28 and with SF-295 was > 100 µM (inactive) each time. Besides, the GI50 in the test on PC-3, in the test with HT-29, in the test with Hs-578T, with RPMI-8226, with SN12C and with SF-268 was > 100 µM (inactive) throughout. Besides, the GI50 in the test with HCT-116, in the test on 786-0, in the test on NCI-H522, in the test with UACC-62 and in the test with OVCAR-3 was > 100 µM (inactive) throughout.

Take `NC(=S)N/N=C1\NC(=O)/C(=C/c2ccc3c(c2)OCO3)S1`: the GI50 was 22.9 µM (inactive) with NCI-H23; 17.1 µM (inactive) in the test on IGROV-1; 14.3 µM (inactive) with A498; 28.3 µM (inactive) with LOX IMVI; 24 µM (inactive) in the test on SK-MEL-28; 36.5 µM (inactive) with SF-295. Further, the GI50 was 28.6 µM (inactive) in the test with HT-29; 27.8 µM (inactive) in the test on NCI/ADR-RES; 36.7 µM (inactive) in the test with SN12C; 31.7 µM (inactive) in the test on SF-268; 29.1 µM (inactive) with HCT-116; 33.9 µM (inactive) in the test with 786-0. In addition, the GI50 in the test on OVCAR-3 was 19.2 µM (inactive).

`CC(=O)CC1(CBr)Nc2ccc([N+](=O)[O-])cc2NC1=O` (stereo unspecified): the GI50 was > 100 µM (inactive) with NCI-H23; > 100 µM (inactive) in the test on IGROV-1; > 100 µM (inactive) in the test on A498; 52.1 µM (inactive) in the test on LOX IMVI; 97.7 µM (inactive) in the test with SK-MEL-28; > 100 µM (inactive) with SF-295. For the same compound, the GI50 was 60.4 µM (inactive) with PC-3; 90.4 µM (inactive) in the test with HT-29; > 100 µM (inactive) in the test with NCI/ADR-RES; 44.3 µM (inactive) with RPMI-8226; 93.1 µM (inactive) in the test with SN12C; > 100 µM (inactive) in the test with SF-268. Also, the GI50 in the test on HCT-116 is 31.8 µM (inactive); in the test on 786-0, 31.2 µM (inactive); with NCI-H522 it was 18.5 µM (inactive); with UACC-62, > 100 µM (inactive); in the test on OVCAR-3, 28.1 µM (inactive).

In the case of `CC(=O)Oc1cc(Cl)c(C)c2c1[C@H]1CC[C@]3(C)[C@@H](OC(C)=O)CC[C@H]3[C@@H]1CC2`, the GI50 in the test with NCI-H23, in the test with IGROV-1, in the test with A498, in the test on LOX IMVI, in the test with SK-MEL-28 and with SF-295 was > 100 µM (inactive) each time. For the same compound, the GI50 is 61.4 µM (inactive) in the test with HT-29; > 100 µM (inactive) with Hs-578T; > 100 µM (inactive) in the test with NCI/ADR-RES; 29.5 µM (inactive) with RPMI-8226; > 100 µM (inactive) with SN12C; > 100 µM (inactive) in the test on SF-268. Further, the GI50 in the test on HCT-116 is 54.6 µM (inactive); in the test with 786-0, > 100 µM (inactive); with NCI-H522, > 100 µM (inactive); in the test with UACC-62, 35 µM (inactive); with OVCAR-3 it was > 100 µM (inactive).

Consider `N#CI1OC(C(F)(F)F)(C(F)(F)F)c2ccccc21`, for which the GI50 in the test with NCI-H23 was 18.6 µM (inactive); in the test with IGROV-1, 16.4 µM (inactive); in the test on A498 it was 37.4 µM (inactive); in the test with LOX IMVI it was 18.8 µM (inactive); with SK-MEL-28, 15.5 µM (inactive); in the test on SF-295, 45.9 µM (inactive). In addition, the GI50 is 15.8 µM (inactive) with PC-3; 16.4 µM (inactive) in the test with HT-29; 15.8 µM (inactive) in the test on NCI/ADR-RES; 29.3 µM (inactive) in the test with RPMI-8226; 23.1 µM (inactive) with SN12C; 17.8 µM (inactive) with SF-268. Besides, the GI50 with HCT-116 is 16.4 µM (inactive); in the test with 786-0, 14.2 µM (inactive); in the test on NCI-H522, 7.19 µM (inactive); in the test on UACC-62, 18.4 µM (inactive); in the test with OVCAR-3, 15.7 µM (inactive).

With `COc1ccc(CN2C(=O)C(Cc3cc(OC)c(OC)c(C)c3OC)NC(=O)/C2=C/c2cc(OC)c(OC)c(C)c2OC)cc1` (stereo unspecified), the GI50 with NCI-H23 is 43.1 µM (inactive); with IGROV-1, 53.2 µM (inactive); with A498, 49.4 µM (inactive); in the test with LOX IMVI, 41.8 µM (inactive); with SK-MEL-28, 59.8 µM (inactive); in the test on SF-295, 43.5 µM (inactive). Also, the GI50 in the test on HT-29 is 24.2 µM (inactive); in the test with RPMI-8226, 28.3 µM (inactive); with SN12C, 27.5 µM (inactive); in the test with SF-268 it was 51.6 µM (inactive); with HCT-116 it was 26.4 µM (inactive); in the test on 786-0 it was 48.4 µM (inactive). The GI50 in the test with NCI-H522 is 18.5 µM (inactive); in the test on UACC-62, 33.7 µM (inactive); with OVCAR-3 it was 26.1 µM (inactive).

In the case of `COc1ccc2[nH]c3c([N+](=O)[O-])ccc(NCCCN(C)C)c3/c(=N/CCCN(C)C)c2c1`, the GI50 is 1.56 µM (inactive) with NCI-H23; 1.86 µM (inactive) in the test on IGROV-1; 1.41 µM (inactive) in the test on LOX IMVI; 1.89 µM (inactive) with SK-MEL-28; 1.63 µM (inactive) with SF-295; 1.06 µM (active) with PC-3. The GI50 was 1.12 µM (inactive) in the test with HT-29; 0.635 µM (active) with RPMI-8226; 1.35 µM (inactive) in the test with SN12C; 1.64 µM (inactive) in the test with SF-268; 0.94 µM (active) with 786-0; > 10 µM (inactive) in the test on UACC-62.

In the case of `Nn1c(Cc2ccc(Cl)cc2)n[nH]c1=O`, the GI50 in the test on NCI-H23, in the test with IGROV-1, in the test with A498, in the test on LOX IMVI, in the test with SK-MEL-28 and with SF-295 was > 100 µM (inactive) throughout. In addition, the GI50 in the test with HT-29, with Hs-578T, in the test on NCI/ADR-RES, with RPMI-8226, in the test with SN12C and with SF-268 was > 100 µM (inactive) throughout. For the same compound, the GI50 in the test on HCT-116, in the test with 786-0, in the test on NCI-H522, in the test with UACC-62 and in the test on OVCAR-3 was > 100 µM (inactive) throughout.

Regarding `COc1ccc(/C=N/Nc2nc3ccccc3c(=O)n2-c2ccccc2)cc1`, the GI50 in the test with NCI-H23 is 55.6 µM (inactive); in the test with IGROV-1, > 100 µM (inactive); in the test on A498 it was > 100 µM (inactive); in the test on LOX IMVI, 95.1 µM (inactive); in the test with SK-MEL-28 it was > 100 µM (inactive); in the test with SF-295, > 100 µM (inactive). For the same compound, the GI50 with PC-3, with HT-29, in the test with NCI/ADR-RES, in the test on SN12C, in the test with SF-268 and in the test with HCT-116 was > 100 µM (inactive) in each case. Further, the GI50 is > 100 µM (inactive) in the test on 786-0, > 100 µM (inactive) with NCI-H522, 24.4 µM (inactive) in the test with UACC-62 and > 100 µM (inactive) with OVCAR-3.
